Results published in US9120791B2, “Indolizine compounds, a process for their preparation and pharmaceutical compositions containing them” (LES LABORATOIRES SERVIER, priority 2012, dated 2015).
Where a name gives a salt, the structure may show the parent alone. Read-outs that look alike come from different tables or passages of the source.

What was measured:
[1] = tested on: RS4;11 leukaemia tumour line; experiment: In vitro cytotoxicity (Microculture Tetrazolium Assay, 48 hours); assay type: cell-based; conditions: RS4;11 cells, 48 hours exposure, MTT, concentration that inhibits cell viability by 50%, read-out: IC50 (nM) MTT RS4
Method: The cytotoxicity studies were carried out on the RS4;11 leukaemia tumour line.
The cells are distributed onto microplates and exposed to the test compounds for 48 hours.

Bcl-2 protein = Bcl-2 protein (Homo sapiens (Human), UniProt P10415); experiment: Inhibition of Bcl-2 by the fluorescence polarisation technique; assay type: binding; conditions: fluorescence polarisation test; concentration that inhibits fluorescence polarisation by 50%; read-out: IC50 (nM) Bcl-2 FP
Bcl-2 protein, sequence (P10415 whole entry): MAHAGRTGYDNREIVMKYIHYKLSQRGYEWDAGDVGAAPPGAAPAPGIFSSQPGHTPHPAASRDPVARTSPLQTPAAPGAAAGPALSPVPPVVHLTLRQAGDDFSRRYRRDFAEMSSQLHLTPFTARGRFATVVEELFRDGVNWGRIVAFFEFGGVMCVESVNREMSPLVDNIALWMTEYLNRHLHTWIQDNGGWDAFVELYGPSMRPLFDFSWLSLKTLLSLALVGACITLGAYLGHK
Method: The fluorescence polarisation tests were carried out on microplates (384 wells). […] After incubation for 2 hours, the fluorescence polarisation is measured.

IC50 (Bcl-2 protein) [nM]	SMILES	IC50 [1] [nM]	IC50 ([1]; Homo sapiens) [nM]
32	Cn1ccc2cc(N(C(=O)c3cc(-c4cc(Br)ccc4C(=O)N4Cc5ccccc5C[C@H]4CN4CCOCC4)n4c3CCCC4)c3ccc(O)cc3)ccc21 [Example 18, 3-{5-Bromo-2-[((3S)-3-(4-morpholinylmethyl)-3,4-dihydro-2(1H)-isoquinolinyl)carbonyl]phenyl}-N-(4-hydroxyphenyl)-N-(1-methyl-1H-indol-5-yl)-5,6,7,8-tetrahydro-1-indolizine carboxamide hydrochloride]		24.9
27	CN1CCc2cc(N(C(=O)c3cc(-c4cc(Br)ccc4C(=O)N4Cc5ccccc5C[C@H]4CN4CCOCC4)n4c3CCCC4)c3ccc(O)cc3)ccc21 [Example 19, 3-{5-Bromo-2-[((3S)-3-(4-morpholinylmethyl)-3,4-dihydro-2(1H)-isoquinolinyl)carbonyl]phenyl}-N-(4-hydroxyphenyl)-N-(1-methyl-2,3-dihydro-1H-indol-5-yl)-5,6,7,8-tetrahydro-1-indolizine carboxamide hydrochloride]		42.3
35	O=C(c1cc(-c2cc(Cl)ccc2C(=O)N2Cc3ccccc3C[C@H]2CN2CCOCC2)n2c1CCCC2)N(c1ccccc1)c1ccc(O)cc1 [Example 20, 3-{5-Chloro-2-[((3S)-3-(4-morpholinylmethyl)-3,4-dihydro-2(1H)-isoquinolinyl)carbonyl]phenyl}-N-(4-hydroxyphenyl)-N-phenyl-5,6,7,8-tetrahydro-1-indolizine carboxamide hydrochloride]		105
22	O=C(c1cc(-c2cc(Cl)ccc2C(=O)N2Cc3ccccc3C[C@H]2CN2CCOCC2)n2c1CCCC2)N(c1ccc(O)cc1)c1ccc2c(c1)CCN2 [Example 21, 3-{5-Chloro-2-[((3S)-3-(4-morpholinylmethyl)-3,4-dihydro-2(1H)-isoquinolinyl)carbonyl]phenyl}-N-(2,3-dihydro-1H-indol-5-yl)-N-(4-hydroxyphenyl)-5,6,7,8-tetrahydro-1-indolizine carboxamide bis(hydrochloride)]		34.6
17	Cn1ccc2cc(N(C(=O)c3cc(-c4cc(F)ccc4C(=O)N4Cc5ccccc5C[C@H]4CN4CCOCC4)n4c3CCCC4)c3ccc(O)cc3)ccc21 [Example 24, 3-{5-Fluoro-2-[((3S)-3-(4-morpholinylmethyl)-3,4-dihydro-2(1H)-isoquinolinyl)carbonyl]phenyl}-N-(4-hydroxyphenyl)-N-(1-methyl-1H-indol-5-yl)-5,6,7,8-tetrahydro-1-indolizine carboxamide hydrochloride]		29.8
29	O=C(c1cc(-c2cc(F)ccc2C(=O)N2Cc3ccccc3C[C@H]2CN2CCOCC2)n2c1CCCC2)N(c1ccccc1)c1ccc(O)cc1 [Example 25, 3-{5-Fluoro-2-[((3S)-3-(4-morpholinylmethyl)-3,4-dihydro-2(1H)-isoquinolinyl)carbonyl]phenyl}-N-(4-hydroxyphenyl)-N-phenyl-5,6,7,8-tetrahydro-1-indolizine carboxamide hydrochloride]		143
17	CN1CCCc2cc(N(C(=O)c3cc(-c4cc(Cl)ccc4C(=O)N4Cc5ccccc5C[C@H]4CN4CCOCC4)n4c3CCCC4)c3ccc(O)cc3)ccc21 [Example 26, 3-{5-Chloro-2-[((3S)-3-(4-morpholinylmethyl)-3,4-dihydro-2(1H)-isoquinolinyl)carbonyl]phenyl}-N-(4-hydroxyphenyl)-N-(1-methyl-1,2,3,4-tetrahydro-6-quinolinyl)-5,6,7,8-tetrahydro-1-indolizine carboxamide hydrochloride]		40
17	CN1CCOc2cc(N(C(=O)c3cc(-c4cc(Cl)ccc4C(=O)N4Cc5ccccc5C[C@H]4CN4CCOCC4)n4c3CCCC4)c3ccc(O)cc3)ccc21 [Example 27, 3-{5-Chloro-2-[((3S)-3-(4-morpholinylmethyl)-3,4-dihydro-2(1H)-isoquinolinyl)carbonyl]phenyl}-N-(4-hydroxyphenyl)-N-(4-methyl-3,4-dihydro-2H-1,4-benzoxazin-7-yl)-5,6,7,8-tetrahydro-1-indolizine carboxamide hydrochloride]		35.4
25	CCN(CC)c1ccc(N(C(=O)c2cc(-c3cc(Cl)ccc3C(=O)N3Cc4ccccc4C[C@H]3CN3CCOCC3)n3c2CCCC3)c2ccc(O)cc2)cc1 [Example 28, 3-{5-Chloro-2-[((3S)-3-(4-morpholinylmethyl)-3,4-dihydro-2(1H)-isoquinolinyl)carbonyl]phenyl}-N-[4-(diethylamino)phenyl]-N-(4-hydroxyphenyl)-5,6,7,8-tetrahydro-1-indolizine carboxamide hydrochloride]		76.1
35	O=C(c1cc(-c2cc(Cl)ccc2C(=O)N2Cc3ccccc3C[C@H]2CN2CCOCC2)n2c1CCCC2)N(c1ccc(O)cc1)c1ccc2c(c1)CCC2 [Example 29, 3-{5-Chloro-2-[((3S)-3-(4-morpholinylmethyl)-3,4-dihydro-2(1H)-isoquinolinyl)carbonyl]phenyl}-N-(2,3-dihydro-1H-inden-5-yl)-N-(4-hydroxyphenyl)-5,6,7,8-tetrahydro-1-indolizine carboxamide hydrochloride]		85.5
13	CN1CCN(C[C@@H]2Cc3ccccc3CN2C(=O)c2ccc(Cl)cc2-c2cc(C(=O)N(c3ccc(O)cc3)c3ccc4c(ccn4C)c3)c3n2CCCC3)CC1 [Example 30, 3-{5-Chloro-2-[((3S)-3-[(4-methyl-1-piperazinyl)methyl]-3,4-dihydro-2(1H)-isoquinolinyl)carbonyl]phenyl}-N-(4-hydroxyphenyl)-N-(1-methyl-1H-indol-5-yl)-5,6,7,8-tetrahydro-1-indolizine carboxamide bis(hydrochloride)]		8.59
33	O=C(c1cc(-c2cc3c(cc2C(=O)N2Cc4ccccc4C[C@H]2CN2CCOCC2)OCCCO3)n2c1CCCC2)N(c1ccccc1)c1ccc(O)cc1 [Example 31, N-(4-Hydroxyphenyl)-3-{8-[((3S)-3-(4-morpholinylmethyl)-3,4-dihydro-2(1H)-isoquinolinyl)carbonyl]-3,4-dihydro-2H-1,5-benzodioxepin-7-yl}-N-phenyl-5,6,7,8-tetrahydro-1-indolizine carboxamide hydrochloride]		340
34	Cn1ccc2cc(N(C(=O)c3cc(-c4cc5c(cc4C(=O)N4Cc6ccccc6C[C@H]4CN4CCOCC4)OCCCO5)n4c3CCCC4)c3ccc(O)cc3)ccc21 [Example 32, N-(4-Hydroxyphenyl)-N-(1-methyl-1H-indol-5-yl)-3-{8-[((3S)-3-(4-morpholinylmethyl)-3,4-dihydro-2(1H)-isoquinolinyl)carbonyl]-3,4-dihydro-2H-1,5-benzodioxepin-7-yl}-5,6,7,8-tetrahydro-1-indolizine carboxamide hydrochloride]		71.3
23	COc1ccc(C(=O)N2Cc3ccccc3C[C@H]2CN2CCOCC2)c(-c2cc(C(=O)N(c3ccc(O)cc3)c3ccc4c(ccn4C)c3)c3n2CCCC3)c1 [Example 33, N-(4-Hydroxyphenyl)-3-{5-methoxy-2-[((3S)-3-(4-morpholinylmethyl)-3,4-dihydro-2(1H)-isoquinolinyl)carbonyl]phenyl}-N-(1-methyl-1H-indol-5-yl)-5,6,7,8-tetrahydro-1-indolizine carboxamide hydrochloride]		12.2
27	O=C(c1cc(-c2cc3c(cc2C(=O)N2Cc4ccccc4C[C@H]2CN2CCOCC2)OCCO3)n2c1CCCC2)N(c1ccccc1)c1ccc(O)cc1 [Example 34, N-(4-Hydroxyphenyl)-3-{7-[((3S)-3-(4-morpholinylmethyl)-3,4-dihydro-2(1H)-isoquinolinyl)carbonyl]-2,3-dihydro-1,4-benzdioxin-6-yl}-N-phenyl-5,6,7,8-tetrahydro-1-indolizine carboxamide hydrochloride]		65.8
15	Cn1ccc2cc(N(C(=O)c3cc(-c4cc5c(cc4C(=O)N4Cc6ccccc6C[C@H]4CN4CCOCC4)OCCO5)n4c3CCCC4)c3ccc(O)cc3)ccc21 [Example 35, N-(4-Hydroxyphenyl)-N-(1-methyl-1H-indol-5-yl)-3-{7-[((3S)-3-(4-morpholinylmethyl)-3,4-dihydro-2(1H)-isoquinolinyl)carbonyl]-2,3-dihydro-1,4-benzodioxin-6-yl}-5,6,7,8-tetrahydro-1-indolizine carboxamide]		11.7
16	Cn1ncc2cc(N(C(=O)c3cc(-c4cc5c(cc4C(=O)N4Cc6ccccc6C[C@H]4CN4CCOCC4)OCCO5)n4c3CCCC4)c3ccc(O)cc3)ccc21 [Example 39, N-(4-Hydroxyphenyl)-N-(1-methyl-1H-indazol-5-yl)-3-{7-[((3S)-3-(4-morpholinylmethyl)-3,4-dihydro-2(1H)-isoquinolinyl)carbonyl]-2,3-dihydro-1,4-benzodioxin-6-yl}-5,6,7,8-tetrahydro-1-indolizine carboxamide hydrochloride]		14.1

SMILES	IC50 (Bcl-2 protein) [nM]	IC50 [1] [nM]	IC50 ([1]; Homo sapiens) [nM]
C[C@H]1COC[C@H](C)N1C[C@@H]1Cc2ccccc2CN1C(=O)c1cc2c(cc1-c1cc(C(=O)N(c3ccc(O)cc3)c3ccc4c(ccn4C)c3)c3n1CCCC3)OCO2 [Example 17, 3-{6-[((3S)-3-{[(3S,5S)-3,5-Dimethylmorpholinyl]methyl}-3,4-dihydro-2(1H)-isoquinolinyl)carbonyl]-1,3-benzodioxol-5-yl}-N-(4-hydroxyphenyl)-N-(1-methyl-1H-indol-5-yl)-5,6,7,8-tetrahydro-1-indolizine carboxamide hydrochloride]	81	120	
